In PMC10388311, “Innovative Strategy toward Mutant CFTR Rescue in Cystic Fibrosis: Design and Synthesis of Thiadiazole Inhibitors of the E3 Ligase RNF5” (Journal of Medicinal Chemistry, 2023):

Experiments:
[1] = target: F508del-CFTR in CFBE41o– cells (Homo sapiens, UniProt Q99942); assay: HS-YFP microfluorimetric assay of F508del-CFTR rescue (corrector activity); format: cell-based; settings: CFBE41o– cells co-expressing F508del-CFTR and HS-YFP, 24 h treatment, Figure 5
Experimental: As a primary screen, the new thiadiazole derivatives 1–46 (Table 1) were tested for their ability to rescue the F508del-CFTR trafficking defect in CFBE41o^– cells, stably co-expressing F508del-CFTR and the HS-YFP (Figure 5). This cell line has been extensively used by our group, in combination with the microfluorimetric assay based on the HS-YFP, to identify and characterize many CFTR correctors.[39],[47] This assay relies on the hypothesis that RNF5 inhibition results in increased mutant CFTR processing and activity. Therefore, it can easily identify putative RNF5 inhibitors, but not other types of RNF5-binding compounds that could have no effect or have a negative effect on CFTR function, such as RNF5 activators (see analog-1). Thus, we opted for this assay as our primary aim was the identification of RNF5 inhibitors as a possible therapeutic strategy in CF. Twenty-four hours after seeding on 96-well plates, CFBE41o^– cells stably expressing F508del-CFTR and the HS-YFP were treated with test compounds at the desired concentration, one compound per well. Cells treated with vehicle alone (DMSO) and with corrector VX-809 (1 μM), respectively, served as negative and positive controls. At the time of the assay, cells were washed with PBS containing (in […]) 137 NaCl, 2.7 KCl, 8.1 Na2HPO4, 1.5 KH2PO4, 1 CaCl2, and 0.5 MgCl2. Cells were then incubated for 25 min with […] of PBS plus forskolin (20 μM) and VX-770 (1 μM) to maximally stimulate F508del-CFTR. Cells were then transferred to a microplate reader (FluoStar Galaxy; BMG Labtech, Offenburg, Germany) for CFTR activity determination. The plate reader was equipped with high-quality excitation (HQ500/20X: 500 ± 10 nm) and emission (HQ535/30M: 535 ± 15 nm) filters for YFP (Chroma Technology). Each assay comprised a continuous 14 s fluorescence reading and 2 s before and 12 s after injection of […] of an iodide-containing solution (PBS with Cl^– replaced by I^–; final I^– concentration […]). Data were normalized to the initial background-subtracted fluorescence. To determine the I^– influx rate, the final 11 s of the data for each well was fitted with an exponential function to extrapolate initial slope (dF/dt). Reproducibility of results was confirmed by performing three independent experiments. CFBE41o^– cells co-expressing F508del-CFTR and the HS-YFP were reverse-transfected with 50 nM (final concentration) siRNAs (Stealth, Life Technologies) in the presence of lipofectamine 2000 as a transfection agent. The following day, the medium was changed, and the cells were incubated at 37 °C for additional 24 h treated with test compounds at the desired concentration, prior to processing the cells for the YFP-based functional assay.

[2] = test system: ATG4B-mediated basal autophagy in F508del-CFTR-expressing CFBE41o– cells; assay: Labeling of autophagic vacuoles with monodansylcadaverine (MDC); format: cell-based, human; settings: test compounds 5 μM 24 h; torin-1 20 nM and SAR-405 2 μM in the last 3 h
Excerpt: To further support our hypothesis that CFTR rescue following treatment with test compounds was indeed due to RNF5 inhibition, we considered additional biological processes known to be regulated by RNF5 ligase activity. To this aim, we focused our attention on ATG4B, a known regulator of basal autophagy, whose degradation is mediated by RNF5 activity.[54]In vivo ubiquitination experiments previously confirmed that inh-2 inhibits ATG4B degradation, thus increasing the basal level of autophagy.[40] […] We thus evaluated the effect of inh-2 analogues on induction of the autophagy pathway. To this aim, we monitored the formation of autophagic vacuoles in F508del-CFTR-expressing CFBE41o^– cells (Figure 8) by using the autolysosome marker monodansylcadaverine (MDC). MDC accumulates inside autophagosomes. After fusion of autophagosomes with lysosomes, MDC fluorescence increases due to the acidic environment.[55] Therefore, F508del-CFTR-expressing CFBE41o^– cells were treated for 24 h with test compounds (5 μM), VX-809 (1 μM), or DMSO alone (vehicle). In the last 3 h of incubation, we added torin-1 (20 nM), a known autophagy inducer, and SAR-405 (2 μM), a potent inhibitor of the autophagic pathway. The cells were then loaded with MDC and evaluated by high-content confocal imaging to detect signal spots (corresponding to autophagic vacuoles) in each cell.
CFBE41o^– cells stably expressing F508del-CFTR and the HS-YFP were plated (50,000 cells/well) on good-quality clear-bottom 96-well black microplates suitable for high-content imaging. After 24 h, cells were treated with test compounds or DMSO (as the negative control). […] After 24 h, cells were incubated with 50 μM MDC (Sigma-Aldrich) in PBS at 37 °C for 10 min.[62] After incubation, cells were washed three times with PBS and immediately analyzed. High-content imaging and data analysis were performed using the Opera Phenix (PerkinElmer) high-content screening system. Wells were imaged in confocal mode using a 40× water-immersion objective. The MDC signal was laser-excited at 405 nm, and the emission wavelengths were collected between 435 and 550 nm. Data analysis of MDC spot number was performed using the Harmony software (ver 4.5) of the Opera Phenix high-content system. Data are expressed as means ± SEM, n = 3 independent experiments. Statistical significance was tested by parametric ANOVA followed by the Dunnet multiple comparisons test (all groups against the control group).

[3] = Solubility and aggregation in PBS buffer by NMR (SPAM filter, 1H 1D and WaterLOGSY); format: physicochemical; settings: PBS pH 7.5, 1 μM ZnCl2, 1 mM DTT, 10% D2O, 1% DMSO-d6
Excerpt: Under these circumstances, it was decided to explore the solubility of all the synthetized compounds, regardless of their biological activities, to find a suitable candidate for the validation of our working hypothesis, i.e., that the compounds exert their activities by directly binding to RNF5. For that, we first calculated the predicted octanol/water partition coefficient (log Po/w) and the predicted aqueous solubility (log S) of all the analogues by QikProp (Schrödinger Release 2022-1: QikProp, Schrödinger, LLC, New York, NY, 2021, Table S1). […] To shrink down the number of compounds for solubility experiments, just the ones that had −2.0 < log Po/w < 6 and −6.5 < log S <0.5 values were selected. Among them, the PBS solubility was determined for five representative analogues: (i) 12 and 29 bearing different substituents on the benzyl group A; (ii) 34 and 40 showing the replacement of rings B and C with pyridine-4-yl moieties; (iii) 42 in which the N-phenylbenzamidine portion was replaced with a pyridine-2-yl moiety (Table 1).
All the NMR experiments were recorded at 298 K using a 5 mm CryoProbe QCI ^1H/^19F–^13C/^15N–D quadruple resonance, a shielded z-gradient coil, and an automatic sample changer SampleJet NMR system with temperature control. The solubility of the compounds were evaluated by ^1H 1D experiments and aggregation by WaterLOGSY, testing the compounds in buffer PBS pH 7,5, 1 μM ZnCl2, 1 mM DTT, 10% D2O (for the lock signal), and 1% DMSO-d6 at the theoretical concentrations of 20, 50, and 100 μM in the presence of 200 μM 4-trifluoromethyl benzoic acid (internal reference). For all samples, a 1D ^1H NMR experiment was recorded, the water suppression was obtained using the standard NOESY (nuclear Overhauser effect spectroscopy) preset Bruker pulse sequence, with 64k data points, a spectral width (sw) of 30 ppm, 64 scans, acquisition time (aq) of 1.835 s, a relaxation delay (d1) of 4 s, and a mixing time of 10 ms. […] The data were multiplied by an exponential window function with 1 Hz line broadening prior to Fourier transformation. For NMR binding experiments, the compounds were tested at 50 μM in buffer PBS pH 7.5, 1 μM ZnCl2, 1 mM DTT, 10% D2O (for the lock signal), and 1% DMSO-d6 in the absence and in the presence of 3 μM RNF5. WaterLOGSY experiments were recorded with the same parameters used in solubility assays, but with a higher number of scans (512); STD experiments were recorded with 128 scans, with two on (0.7 and 1 ppm) and one off (−50 ppm) resonance spectra, a Gaussian-shaped train pulse of 50 ms each was employed, with a total saturation time of the protein envelope of 5, 3, 2, 1.5, 1, or 0.5 s. A T1ρ filter of 2 ms was employed in STD experiments to eliminate the background signals from the protein. The STD spectrum was obtained by subtraction of the on-resonance spectrum from the off-resonance spectrum. Subtraction was performed by phase cycling to minimize artifacts arising from magnet and temperature instabilities.

F508del-CFTR in CFBE41o– cells, sequence (Q99942 2-180): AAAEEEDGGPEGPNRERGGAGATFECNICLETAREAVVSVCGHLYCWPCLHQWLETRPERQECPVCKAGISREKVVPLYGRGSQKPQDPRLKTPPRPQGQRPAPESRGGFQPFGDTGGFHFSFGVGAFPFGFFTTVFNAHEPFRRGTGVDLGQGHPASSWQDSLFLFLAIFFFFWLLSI
F508del-CFTR in CFBE41o– cells, sequence (P13569 with tags, fused parts or gaps DEL508-508 partner): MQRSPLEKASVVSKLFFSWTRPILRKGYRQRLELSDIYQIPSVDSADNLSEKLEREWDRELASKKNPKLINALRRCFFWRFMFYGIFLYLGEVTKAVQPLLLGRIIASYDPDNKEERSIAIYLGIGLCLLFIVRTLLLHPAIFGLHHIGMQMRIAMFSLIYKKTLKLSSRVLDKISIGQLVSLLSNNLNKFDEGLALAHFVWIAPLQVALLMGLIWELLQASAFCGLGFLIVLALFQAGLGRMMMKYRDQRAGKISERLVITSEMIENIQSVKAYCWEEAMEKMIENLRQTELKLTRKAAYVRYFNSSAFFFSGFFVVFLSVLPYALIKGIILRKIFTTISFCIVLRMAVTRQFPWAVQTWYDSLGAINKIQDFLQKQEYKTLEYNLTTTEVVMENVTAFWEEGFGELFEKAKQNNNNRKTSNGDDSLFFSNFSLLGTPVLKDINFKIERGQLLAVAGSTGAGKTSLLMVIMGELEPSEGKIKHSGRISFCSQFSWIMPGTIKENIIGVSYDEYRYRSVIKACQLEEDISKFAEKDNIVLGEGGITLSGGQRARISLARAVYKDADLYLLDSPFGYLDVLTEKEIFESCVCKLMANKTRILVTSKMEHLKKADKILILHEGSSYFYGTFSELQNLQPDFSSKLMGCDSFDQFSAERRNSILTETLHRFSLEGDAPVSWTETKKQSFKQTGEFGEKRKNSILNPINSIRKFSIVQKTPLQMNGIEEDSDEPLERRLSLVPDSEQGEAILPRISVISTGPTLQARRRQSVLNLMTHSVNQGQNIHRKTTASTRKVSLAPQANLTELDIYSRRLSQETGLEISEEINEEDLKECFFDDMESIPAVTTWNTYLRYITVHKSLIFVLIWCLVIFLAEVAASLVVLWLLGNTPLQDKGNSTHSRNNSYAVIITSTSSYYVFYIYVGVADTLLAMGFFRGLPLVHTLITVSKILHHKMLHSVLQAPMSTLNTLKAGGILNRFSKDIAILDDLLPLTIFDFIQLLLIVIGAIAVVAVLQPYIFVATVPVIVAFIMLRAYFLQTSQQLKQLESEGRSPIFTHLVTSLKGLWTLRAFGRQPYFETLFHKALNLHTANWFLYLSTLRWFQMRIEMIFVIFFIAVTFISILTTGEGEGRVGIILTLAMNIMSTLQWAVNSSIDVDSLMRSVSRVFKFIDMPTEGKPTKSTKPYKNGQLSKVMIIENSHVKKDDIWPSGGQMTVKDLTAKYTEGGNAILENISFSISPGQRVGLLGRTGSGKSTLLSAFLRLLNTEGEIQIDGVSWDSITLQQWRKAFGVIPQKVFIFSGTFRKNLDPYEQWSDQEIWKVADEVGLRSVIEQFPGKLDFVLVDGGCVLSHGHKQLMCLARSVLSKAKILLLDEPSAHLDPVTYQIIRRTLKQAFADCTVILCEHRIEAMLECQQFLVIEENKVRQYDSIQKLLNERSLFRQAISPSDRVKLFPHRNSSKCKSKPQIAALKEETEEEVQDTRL

Row | SMILES | F508del-CFTR corrector activity compared with inh-2 (CFTR activity, primary screen) [1] | number of autophagic vacuoles (MDC signal spots) [2] | also measured
1 | Cc1ns/c(=N\C(=N\c2ccccc2)c2ccccc2)n1Cc1ccc(F)cc1 [Compound 9, (E)-N-((Z)-4-(4-Fluorobenzyl)-3-methyl-1,2,4-thiadiazol-5(4H)-ylidene)-N′-phenylbenzimidamide] | maintained the activity unaltered | significantly decreased | 
2 | Cc1ns/c(=N\C(=N\c2ccccc2)c2ccccc2)n1Cc1ccc(Br)cc1 [Compound 11, (E)-N-((Z)-4-(4-Bromobenzyl)-3-methyl-1,2,4-thiadiazol-5(4H)-ylidene)-N′-phenylbenzimidamide] | maintained the activity unaltered | significantly increased | 
3 | CNc1cccc(Cn2c(C)ns/c2=N\C(=N\c2ccccc2)c2ccccc2)c1 [Compound 21, (E)-N-((Z)-3-Methyl-4-(3-(methylamino)benzyl)-1,2,4-thiadiazol-5(4H)-ylidene)-N′-phenylbenzimidamide] | did not affect the activity | significantly increased | 
4 | Cc1ns/c(=N\C(=N\c2ccccc2)c2ccccc2)n1Cc1ccccc1N [Compound 29, (E)-N-((Z)-4-(2-Aminobenzyl)-3-methyl-1,2,4-thiadiazol-5(4H)-ylidene)-N′-phenylbenzimidamide] | comparable activity to the unsubstituted original hit inh-2 |  | solubility ([3]; PBS buffer, aqueous buffer, kinetic from dmso stock, theoretical concentration 20 μM, read-out: solubility in PBS buffer by NMR, 20 μM): < 5 µM; aggregation in PBS buffer by NMR ([3]; WaterLOGSY): no; solubility at 50 µM ([3]; theoretical concentration 50 μM): <5 µM; solubility at 100 µM ([3]; theoretical concentration 100 μM): <5 µM
5 | C[C@@H]1COCCN1c1cc(=O)n2c(n1)N(Cc1cncc(Cl)c1)[C@H](C(F)(F)F)CC2 [SAR-405, reference compound] |  | significantly decreased | 
6 | CCC(=O)N1CCN(c2ccc(-n3c(=O)ccc4cnc5ccc(-c6cnc7ccccc7c6)cc5c43)cc2C(F)(F)F)CC1 [torin-1, reference compound] |  | significantly increased | 

Now from value to compound, other results behind:

Row | F508del-CFTR corrector activity compared with inh-2 (CFTR activity, primary screen) [1] | SMILES | number of autophagic vacuoles (MDC signal spots) [2] | also measured
7 | inactive analogs | Cc1ns/c(=N\C(=N\C2CCCCC2)c2ccccc2)n1Cc1ccccc1 [Compound 39, (E)-N-((Z)-4-Benzyl-3-methyl-1,2,4-thiadiazol-5(4H)-ylidene)-N′-cyclohexylbenzimidamide] |  | 
8 | inactive analogs | Cc1ns/c(=N\C(=N\c2cccnc2)c2ccccc2)n1Cc1ccccc1 [Compound 41, (E)-N-((Z)-4-Benzyl-3-methyl-1,2,4-thiadiazol-5(4H)-ylidene)-N′-(pyridin-3-yl)benzimidamide] |  | 
9 | inactive compounds | COCCc1ccnc(/N=c2\snc(C)n2Cc2ccccc2)c1 [Compound 43, (Z)-4-Benzyl-N-(4-(2-methoxyethyl)pyridin-2-yl)-3-methyl-1,2,4-thiadiazol-5(4H)-imine] |  | 
10 | abolished any corrector activity | Cc1nn(Cc2ccccc2)/c(=N/C(=N/c2ccccc2)c2ccccc2)s1 [Compound 44, (E)-N-((Z)-3-Benzyl-5-methyl-1,3,4-thiadiazol-2(3H)-ylidene)-N′-phenylbenzimidamide] |  | 
11 | abolished any corrector activity | c1ccc(Cn2ncs/c2=N\C(=N\c2ccccc2)c2ccccc2)cc1 [Compound 45, (E)-N-((Z)-3-Benzyl-1,3,4-thiadiazol-2(3H)-ylidene)-N′-phenylbenzimidamide] |  | 
12 | abolished any corrector activity | c1ccc(Cn2ccs/c2=N\C(=N\c2ccccc2)c2ccccc2)cc1 [Compound 46, (E)-N-((Z)-3-Benzylthiazol-2(3H)-ylidene)-N′-phenylbenzimidamide] |  | 
